Test results published in patent US11021444B2, “Antiviral compounds” (priority 2013, dated 2021).
Read-outs that look alike come from different tables or passages of the source.

Experiments:
[1] = system: Respiratory Syncytial Virus (RSV) long strain; experiment: microbe, parasite or virus in culture; type: cell-based; details: human respiratory syncytial virus, Tables A and B list compounds by EC50 band
Method: (§1) CPE reduction assays are performed as described by Sidwell and Huffman et al., Appl. Microbiol. (1971) 22(5):797-801 with slight modifications. HEp-2 cells (ATCC #, CCL-23) are seeded at a density of 1,500 cells/30 μl/well into the 384-well cell plate(s) (Corning #3701) one day prior to the assay. Compounds are added into 384-well cell plates by Labcyte POD 810 Plate Assembler system. Each of the test compounds is provided to duplicate wells of a 384-well cell plate at final concentrations starting from 100 μM or 1 μM using 1/3 stepwise dilutions for 9 points. Quick-thaw Respiratory Syncytial Virus (RSV) long strain (ATCC #VR-26) stock in a 37° C. water bath. Place on ice until ready to use. Viruses are diluted to the concentration of 100 TCID50/30 μL with medium and 30 μl diluted RSV are added into related wells of 384-well cell plates. For each plate, sixteen wells are set aside as uninfected, untreated cell controls (CC), and nine wells per test plate receive virus only as a control for virus replication (VC). The final DMSO concentration of all wells is 1%. Place the plates at 37° C., 5% CO2 for 5 days.
After 5 days incubation, observe the CPE of cells in all wells. […] Six μl of cell counting kit-8 reagent (CCK-8, Dojindo Molecular Technologies Inc., CK04-20) are added to each well, which allows colorimetric assays to determine the number of viable cells through the dehydrogenase activity detection. After 3-4 hour incubation, the absorbance of each well is measured with a spectrophotometric plate reader at 450 nm wavelength, using a 630 nm filter as background according to manufacturer's instruction.

[2] = Cytotoxicity Determination (CCK-8, without addition of virus); type: cell-based; details: human, 50% cytotoxicity concentration (CC50)
Method: as §1
In order to determine the compound cytotoxicity, in parallel, each of the compounds is applied to duplicate wells in a 384-well cell plate at serial final concentrations starting from 100 μM using 1/2 stepwise dilutions for 7 points without addition of virus. Incubate the cells at 37° C., 5% CO2 for 5 days. Add 6 μL CCK-8 into each well and incubate in a CO2 incubator at 37° C. for 3-4 hours.

recombinant RSV complex = recombinant RSV complex (Human respiratory syncytial virus A, UniProt P28887); experiment: RSV Polymerase Inhibition Assay; type: biochemical
recombinant RSV complex, sequence (P28887 whole entry): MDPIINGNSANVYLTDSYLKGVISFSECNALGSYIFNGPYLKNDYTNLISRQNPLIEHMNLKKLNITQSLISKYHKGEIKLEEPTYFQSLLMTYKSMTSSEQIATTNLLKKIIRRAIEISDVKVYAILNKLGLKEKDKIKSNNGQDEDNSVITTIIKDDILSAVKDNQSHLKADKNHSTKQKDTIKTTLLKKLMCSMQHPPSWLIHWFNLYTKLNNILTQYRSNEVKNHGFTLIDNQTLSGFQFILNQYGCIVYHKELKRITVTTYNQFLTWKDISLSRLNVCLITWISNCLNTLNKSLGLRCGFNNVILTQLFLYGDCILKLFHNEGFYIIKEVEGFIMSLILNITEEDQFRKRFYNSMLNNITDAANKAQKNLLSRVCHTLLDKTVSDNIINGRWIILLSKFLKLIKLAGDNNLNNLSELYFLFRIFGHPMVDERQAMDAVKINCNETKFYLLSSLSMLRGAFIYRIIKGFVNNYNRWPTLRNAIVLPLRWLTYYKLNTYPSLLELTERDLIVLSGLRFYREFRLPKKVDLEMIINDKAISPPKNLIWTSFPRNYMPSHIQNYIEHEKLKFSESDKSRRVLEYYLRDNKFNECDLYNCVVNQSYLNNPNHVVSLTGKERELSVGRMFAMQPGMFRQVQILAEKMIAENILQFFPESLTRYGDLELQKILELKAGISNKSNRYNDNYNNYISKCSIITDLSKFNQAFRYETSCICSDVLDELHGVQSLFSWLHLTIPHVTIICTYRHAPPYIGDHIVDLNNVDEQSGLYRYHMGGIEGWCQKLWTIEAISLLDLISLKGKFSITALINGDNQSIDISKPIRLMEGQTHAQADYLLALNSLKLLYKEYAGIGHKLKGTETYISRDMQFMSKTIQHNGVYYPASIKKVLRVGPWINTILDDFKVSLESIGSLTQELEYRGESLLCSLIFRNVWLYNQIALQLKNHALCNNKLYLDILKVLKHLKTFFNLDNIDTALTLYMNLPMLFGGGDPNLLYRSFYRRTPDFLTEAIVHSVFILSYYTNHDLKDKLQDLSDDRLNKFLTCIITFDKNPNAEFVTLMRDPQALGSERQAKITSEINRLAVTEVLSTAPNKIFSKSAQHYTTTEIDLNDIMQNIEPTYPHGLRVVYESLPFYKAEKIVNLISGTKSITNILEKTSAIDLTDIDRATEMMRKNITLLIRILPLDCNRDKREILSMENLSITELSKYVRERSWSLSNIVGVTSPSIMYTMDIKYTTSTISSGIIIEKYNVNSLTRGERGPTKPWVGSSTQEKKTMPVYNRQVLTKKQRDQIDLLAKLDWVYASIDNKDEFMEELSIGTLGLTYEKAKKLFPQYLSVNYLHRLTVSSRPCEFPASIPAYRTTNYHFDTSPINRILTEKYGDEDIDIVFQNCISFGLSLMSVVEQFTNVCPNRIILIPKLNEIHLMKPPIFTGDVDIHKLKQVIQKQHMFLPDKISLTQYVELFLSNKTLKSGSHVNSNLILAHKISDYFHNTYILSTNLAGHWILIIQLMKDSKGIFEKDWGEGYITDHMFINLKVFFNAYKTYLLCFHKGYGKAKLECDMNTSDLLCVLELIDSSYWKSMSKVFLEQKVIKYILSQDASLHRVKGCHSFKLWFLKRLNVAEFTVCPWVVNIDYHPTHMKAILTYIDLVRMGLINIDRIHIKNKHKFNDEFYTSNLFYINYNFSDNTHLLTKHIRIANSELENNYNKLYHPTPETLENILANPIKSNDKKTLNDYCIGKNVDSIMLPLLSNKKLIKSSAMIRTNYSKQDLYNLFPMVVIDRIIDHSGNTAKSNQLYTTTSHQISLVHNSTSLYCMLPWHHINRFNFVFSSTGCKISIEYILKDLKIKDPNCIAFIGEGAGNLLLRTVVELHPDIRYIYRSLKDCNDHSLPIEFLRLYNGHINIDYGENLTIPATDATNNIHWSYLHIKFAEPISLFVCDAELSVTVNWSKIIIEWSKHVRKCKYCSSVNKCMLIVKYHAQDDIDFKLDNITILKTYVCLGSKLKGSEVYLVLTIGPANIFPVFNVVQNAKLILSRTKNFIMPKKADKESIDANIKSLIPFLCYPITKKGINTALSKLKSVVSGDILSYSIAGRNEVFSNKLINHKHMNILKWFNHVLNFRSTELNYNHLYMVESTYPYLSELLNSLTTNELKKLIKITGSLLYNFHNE
recombinant RSV complex, sequence (P03421 whole entry, further chain): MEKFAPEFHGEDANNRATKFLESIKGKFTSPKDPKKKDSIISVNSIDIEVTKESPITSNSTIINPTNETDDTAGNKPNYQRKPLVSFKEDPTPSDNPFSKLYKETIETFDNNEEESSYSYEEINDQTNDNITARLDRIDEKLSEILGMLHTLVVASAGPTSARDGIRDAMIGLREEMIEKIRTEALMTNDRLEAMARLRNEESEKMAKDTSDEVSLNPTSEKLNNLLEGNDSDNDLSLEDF
Method: Standard RSV polymerase assays were conducted in the presence of 10 nM recombinant RSV complex in a reaction buffer containing Tris-HCl pH7.5, 6 mM MgCl2, and other additives and substrates including RNA oligonucleotides and radionucleotides. Standard reactions were incubated in 96-well plate format for 2 h at 30° C., in the presence of increasing concentration of inhibitor. The reaction was stopped with 90 μL of 0.1M EDTA, and the reaction product was transferred to a “reading” 96-well plate. After washing of the plate, radiolabeled RNA products were detected according to standard procedures with a Trilux Topcount scintillation counter.

[3] = HEp-2, 120 h, read-out: 50% effective concentration (EC50), HEp-2 cells infected with RSV long strain, 5 days, CCK-8 readout
[4] = 120 h, read-out: 50% effective concentration (EC50), HEp-2 cells infected with RSV long strain, 5 days, CCK-8 readout

Row | Compound | EC50 [1, 3] [µM] | CC50 at 5 days [2] [µM] | IC50 (recombinant RSV complex) [µM] | EC50 [1, 4] [µM]
1 | COc1cc(C(=O)NCC(=O)c2cc3c(c(-c4ccc(F)c(Cl)c4)n2)OCC3)ccc1OCCF [Compound 135] | < 1 | > 100 | < 100 | –
2 | COc1ccc(C(=O)NCC(C)(O)c2cccc(-c3csc4c(F)cccc34)n2)cc1OC (stereo not drawn) [Compound 142] | < 1 | 10 to 100 | < 1 | –
3 | COc1ccc(C(=O)NCC(OC)c2cccc(-c3csc4c(F)cccc34)n2)cc1OC (stereo not drawn) [Compound 148] | 1 to 50 | 10 to 100 | < 10 | –
4 | COc1cc(C(=O)NCC(F)c2ccc(OC)c(-c3ccc(F)c(Cl)c3)n2)ccc1OCCO (stereo not drawn) [Compound 149] | 1 to 50 | 10 to 100 | < 10 | –
5 | COc1cc(C(=O)NCC(F)(F)c2ccc(OC)c(-c3ccc(F)c(Cl)c3)n2)ccc1OCCO [Compound 150] | – | > 100 | < 10 | 1 to 50
6 | COc1cc(C(=O)NCC(O)c2ccc3c(n2)-c2c(sc4c(F)cccc24)CO3)ccc1OCCO (stereo not drawn) [Compound 161] | 1 to 50 | 10 to 100 | < 100 | –
7 | COc1cc(C(=O)NCC(O)c2cccc(-c3csc4c(F)cccc34)n2)ccc1OCCO (stereo not drawn) [Compound 165] | 1 to 50 | 10 to 100 | < 10 | –
8 | COc1cc(C(=O)NCC(C)(O)c2ccc(OC)c(-c3ccc(F)c(Br)c3)n2)ccc1OCCO (stereo not drawn) [Compound 167] | < 1 | 10 to 100 | < 1 | –
9 | COc1ccc(C(=O)NCC(C)(O)c2ccc(OC)c(-c3ccc(F)c(Cl)c3)n2)cc1 (stereo not drawn) [Compound 174] | 1 to 50 | 10 to 100 | < 10 | –
10 | COc1ccc(C(C)(O)CNC(=O)c2ccc(-c3nc(C)no3)cc2)nc1-c1ccc(F)c(Cl)c1 (stereo not drawn) [Compound 175] | 1 to 50 | > 100 | < 10 | –
11 | CNCC(O)(CNC(=O)c1ccc(OCCO)c(OC)c1)c1ccc(OC)c(-c2ccc(F)c(Cl)c2)n1 (stereo not drawn) [Compound 177] | 1 to 50 | > 100 | < 10 | –
12 | COc1cc(C(=O)NCC(O)(CN(C)C)c2ccc(OC)c(-c3ccc(F)c(Cl)c3)n2)ccc1OCCO (stereo not drawn) [Compound 178] | 1 to 50 | > 100 | < 100 | –
13 | COc1cc(C(=O)NCC(O)(CN)c2ccc(OC)c(-c3ccc(F)c(Cl)c3)n2)ccc1OCCO (stereo not drawn) [Compound 179] | 1 to 50 | > 100 | < 1 | –
14 | COc1cc(C(=O)NCC(O)(CN2CCOCC2)c2ccc(OC)c(-c3ccc(F)c(Cl)c3)n2)ccc1OCCO (stereo not drawn) [Compound 181] | < 1 | > 100 | < 1 | –
15 | COc1cc(C(=O)NCC(O)(CN2CCNC(=O)C2)c2ccc(OC)c(-c3ccc(F)c(Cl)c3)n2)ccc1OCCO (stereo not drawn) [Compound 182] | < 1 | > 100 | < 1 | –
16 | COc1cc(C(=O)NCC(O)(CN2CCCC2)c2ccc(OC)c(-c3ccc(F)c(Cl)c3)n2)ccc1OCCO (stereo not drawn) [Compound 187] | 1 to 50 | > 100 | < 10 | –
17 | COc1cc(C(=O)NCC(O)(CN2CCNCC2)c2ccc(OC)c(-c3ccc(F)c(Cl)c3)n2)ccc1OCCO (stereo not drawn) [Compound 190] | – | > 100 | < 1 | 1 to 50
18 | COc1cc(C(=O)NCC(O)(CN2CCNCC2=O)c2ccc(OC)c(-c3ccc(F)c(Cl)c3)n2)ccc1OCCO (stereo not drawn) [Compound 196] | 1 to 50 | > 100 | < 1 | –
19 | COc1cc(C(=O)NCC(O)(c2cn(C)nn2)c2ccc(OC)c(-c3ccc(F)c(Cl)c3)n2)ccc1OCCO (stereo not drawn) [Compound 199] | < 1 | > 100 | < 1 | –
20 | CC1(C)COc2c1cc(C(O)(CNC(=O)c1cc(O)c3ncccc3c1)C(F)(F)F)nc2-c1ccc(F)c(Cl)c1 (stereo not drawn) [Compound 207] | 1 to 50 | 10 to 100 | < 1 | –

Row | Compound | EC50 [1, 3] [µM] | CC50 at 5 days [2] [µM] | IC50 (recombinant RSV complex) [µM] | EC50 [1, 4] [µM]
21 | COc1cc(C(=O)NCC(O)(c2cc3c(c(-c4ccc(F)c(Cl)c4)n2)OCC3(C)C)C(F)(F)F)ccc1OCC(N)=O (stereo not drawn) [Compound 210] | – | 10 to 100 | < 1 | < 1
22 | COc1cc(C(=O)NCC(O)(c2cc3c(c(-c4ccc(F)c(Cl)c4)n2)OCC3(C)C)C(F)(F)F)cc2ccc(C)nc12 (stereo not drawn) [Compound 213] | < 1 | > 100 | < 1 | –
23 | COc1cc(C(=O)NCC(O)(c2cc3c(c(-c4ccc(F)c(Cl)c4)n2)OCC3(C)C)C(F)(F)F)cc2ccc(C(N)=O)nc12 (stereo not drawn) [Compound 214] | < 1 | 10 to 100 | < 1 | –
24 | COc1cc(C(=O)NCC(O)(c2cc3c(c(-c4ccc(F)c(Cl)c4)n2)OCC3(C)C)C(F)(F)F)cc2ccc(C#N)nc12 (stereo not drawn) [Compound 215] | 1 to 50 | 10 to 100 | < 1 | –
25 | COc1cc(C(=O)NCC(O)(c2cc3c(c(-c4ccc(F)c(Cl)c4)n2)OCC3(C)C)C(F)(F)F)ccc1CN1CCNC1=O (stereo not drawn) [Compound 216] | 1 to 50 | 10 to 100 | < 10 | –
26 | COc1cc(C(=O)NCC(=O)c2cc3c(c(-c4ccc(F)c(Cl)c4)n2)OCC3(C)C)ccc1OC1CCNC1=O (stereo not drawn) [Compound 217] | < 1 | 10 to 100 | < 1 | –
27 | COc1cc(C(=O)NCC(O)(CO)c2cc3c(c(-c4ccc(F)c(Cl)c4)n2)OCC3(C)C)ccc1OC1CCNC1=O (stereo not drawn) [Compound 219] | < 1 | 10 to 100 | < 1 | –
28 | COc1cc(C(=O)NCC(O)(CO)c2cc3c(c(-c4ccc(F)c(Cl)c4)n2)OCC3(C)C)cc2cccnc12 (stereo not drawn) [Compound 221] | < 1 | 10 to 100 | < 1 | –
29 | COc1cc(C(=O)NCC(=O)c2cc3c(c(-c4ccc(F)c(Cl)c4)n2)OCC3(C)C)ccc1OC1CCN(C)C1=O (stereo not drawn) [Compound 222] | < 1 | 10 to 100 | < 1 | –
30 | COc1cc(C(=O)NCC(C)(O)c2cc3c(c(-c4ccc(F)c(Cl)c4)n2)OCC3(C)C)ccc1OCCF (stereo not drawn) [Compound 227] | < 1 | 10 to 100 | < 1 | –
31 | COc1cc(C(=O)NCC(O)(c2ccc(OC)c(-c3ccc(F)c(Cl)c3)n2)C(F)(F)F)ccc1OCC(F)(F)F (stereo not drawn) [Compound 233] | 1 to 50 | > 100 | < 1 | –
32 | COc1cc(C(=O)NCC(O)(c2ccc(OC)c(-c3ccc(F)c(Cl)c3)n2)C(F)(F)F)ccc1OCC(C)(F)F (stereo not drawn) [Compound 234] | < 1 | > 100 | < 1 | –
33 | COc1cc(C(=O)NCC(O)(c2ccc(OC)c(-c3ccc(F)c(Cl)c3)n2)C(F)(F)F)ccc1OC1CCOC1 (stereo not drawn) [Compound 235] | < 1 | 10 to 100 | < 1 | –
34 | COc1cc(C(=O)NCC(O)(c2ccc(OC)c(-c3ccc(F)c(Cl)c3)n2)C(F)(F)F)ccc1OC1CCCC1 (stereo not drawn) [Compound 236] | 1 to 50 | > 100 | < 1 | –
35 | COc1ccc(C(O)(CNC(=O)c2ccc(OC3CC3)c(Cl)c2)C(F)(F)F)nc1-c1ccc(F)c(Cl)c1 (stereo not drawn) [Compound 251] | 1 to 50 | 10 to 100 | < 1 | –
36 | COc1ccc(C(O)(CNC(=O)c2ccc3ncccc3c2)C(F)(F)F)nc1-c1ccc(F)c(Cl)c1 (stereo not drawn) [Compound 252] | 1 to 50 | 10 to 100 | < 1 | –
37 | COc1ccc(C(O)(CNC(=O)c2ccc3[nH]cnc3c2)C(F)(F)F)nc1-c1ccc(F)c(Cl)c1 (stereo not drawn) [Compound 253] | 1 to 50 | 10 to 100 | < 10 | –
38 | COc1ccc(C(O)(CNC(=O)c2ccc3ncsc3c2)C(F)(F)F)nc1-c1ccc(F)c(Cl)c1 (stereo not drawn) [Compound 254] | 1 to 50 | 10 to 100 | < 1 | –
39 | COc1cc(C(=O)NCC(O)(c2ccc(OC)c(-c3ccc(F)c(Cl)c3)n2)C(F)(F)F)ccc1OC1CCCC1=O (stereo not drawn) [Compound 257] | < 1 | 10 to 100 | < 1 | –
